Columns and labels:
Assay in all cases: relative viability (nuclei count vs DMSO), 5 days (fraction); higher = more cells survive
[1] = compound: C1/C(=C\C2=CC=CS2)/C(=O)/C(=C/C3=CC=CS3)/C1 + CC(C)C[C@H](NC(=O)[C@H](Cc1ccccc1)NC(=O)c1cnccn1)B(O)O [Bortezomib] (partner 0.002 µM)
How it was run: (§1)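 Five library-drug doses in √10 steps were combined with a fixed anchor-drug dose, or a single drug was given alone, by pin tool to lung cancer cell lines in 1536-well plates the day after seeding. Nuclei were stained and counted after 5 days. Relative viability is the nuclei count in treated wells over that in vehicle wells, taken as the median of duplicate plates.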

[2] = compound: C1/C(=C\C2=CC=CS2)/C(=O)/C(=C/C3=CC=CS3)/C1 + C[C@@H](Oc1cc(-c2cnn(C3CCNCC3)c2)cnc1N)c1c(Cl)ccc(F)c1Cl [Crizotinib] (partner 1 µM)
How it was run: as §1

[3] = compound: C1=CC(=CC=C1C2=CC(=C(S2)NC(=O)N)C(=O)N)F [TPCA-1] + Nc1ncn([C@H]2C[C@H](O)[C@@H](CO)O2)c(=O)n1 [Decitabine] (partner 2 µM)
How it was run: as §1

[4] = compound: C[C@]12O[C@H](C[C@]1(O)CO)n1c3ccccc3c3c4c(c5c6ccccc6n2c5c31)CNC4=O [Lestaurtinib] + CCNC(=O)c1noc(-c2cc(C(C)C)c(O)cc2O)c1-c1ccc(CN2CCOCC2)cc1 [Luminespib] (partner 0.01 µM)
How it was run: as §1

| Cell Line | relative viability ([1]; first compound 0.2 µM) | relative viability ([1]; first compound 0.6325 µM) | relative viability ([1]; first compound 2 µM) | relative viability ([1]; first compound 6.325 µM) | relative viability ([1]; first compound 20 µM) | relative viability ([2]; first compound 0.2 µM) | relative viability ([2]; first compound 0.6325 µM) | relative viability ([2]; first compound 2 µM) | relative viability ([2]; first compound 6.325 µM) | relative viability ([2]; first compound 20 µM) | relative viability ([3]; first compound 0.04 µM) | relative viability ([3]; first compound 0.1265 µM) | relative viability ([3]; first compound 0.4 µM) | relative viability ([3]; first compound 1.265 µM) | relative viability ([3]; first compound 4 µM) | relative viability ([4]; first compound 0.005 µM) | relative viability ([4]; first compound 0.01581 µM) | relative viability ([4]; first compound 0.05 µM) | relative viability ([4]; first compound 0.1581 µM) | relative viability ([4]; first compound 0.5 µM) |
| --- | --- | --- | --- | --- | --- | --- | --- | --- | --- | --- | --- | --- | --- | --- | --- | --- | --- | --- | --- | --- |
| NCI-H2009 | 1.04 | 0.939 | 1.08 | 0.736 | 0.991 | 1.11 | 1.09 | 1.02 | 0.971 | 1.06 | 0.412 | 0.392 | 0.377 | 0.423 | 0.392 | 1.13 | 1.08 | 0.993 | 0.858 | 0.637 |
| ABC-1 | 0.33 | 0.349 | 0.336 | 0.265 | 0.253 | 1.05 | 1.21 | 1.25 | 1.01 | 0.92 | 1.49 | 1.07 | 1.16 | 1.09 | 1.27 |  | 0.323 | 0.445 | 0.331 | 0.178 |
| NCI-H322M | 1.17 | 1.31 | 1.3 | 1.19 | 1.12 | 0.876 | 1.03 | 0.98 | 0.743 | 0.922 | 0.729 | 0.638 | 0.74 | 0.682 | 0.486 | 0.773 | 0.713 | 0.449 | 0.337 | 0.329 |
| NCI-H1792 | 0.968 | 0.957 | 1.06 |  | 0.832 | 0.991 | 0.998 | 1.07 |  | 1.06 | 0.674 | 0.465 | 0.551 | 0.474 | 0.307 |  | 0.618 | 0.332 | 0.464 | 0.158 |
| LXF-289 | 1.01 | 0.988 | 0.971 | 0.83 | 0.991 | 0.811 | 0.835 | 0.767 | 0.709 | 0.821 | 0.384 | 0.345 | 0.395 | 0.403 | 0.34 | 0.833 | 0.746 | 0.421 | 0.33 | 0.293 |
| HCC-827 | 1.1 | 1.07 | 0.993 | 0.84 | 1.05 | 0.961 | 0.898 | 0.949 | 0.635 | 0.978 | 0.364 | 0.326 | 0.317 | 0.31 | 0.31 | 0.332 | 0.505 | 0.344 | 0.289 | 0.33 |
| EMC-BAC-2 | 1.16 | 1.08 | 1.19 | 0.967 | 1.02 | 0.789 | 0.792 | 0.751 | 0.59 | 0.695 | 0.997 | 0.972 | 0.939 | 0.852 | 0.898 | 1.15 | 1.33 | 0.806 | 0.434 | 0.323 |
| NCI-H520 | 0.575 | 0.763 | 0.601 | 0.401 | 0.533 | 0.882 | 0.966 | 0.715 | 0.655 | 0.751 | 0.522 | 0.35 | 0.573 | 0.516 | 0.331 | 0.226 | 0.202 | 0.234 | 0.217 | 0.244 |

From the supplement of paper PMC10307832
